# From patent US20100278837A1, “Compositions And Methods For Reducing Cancer And Inflammation” (The Regents of the University of California, priority 2009, published 2010)
# System: CD11b+ cells adhesion to endothelium
# Assay: Adhesion of CD11b+ cells to endothelium (Example 1 adhesion assay)
# Type: cell-based, murine
# Conditions: SDF-1α, TCM or IL-1β (and other chemoattractant) induced
# Procedure: TCM was prepared from serum-free media cultured on LLC cells for 18 h and filtered through 0.22 μm filters. 10^5 calcein-AM labelled human or murine CD11b+ cells in TCM or DMEM containing 200 ng/ml SDF-1α, IL-1β, IL-6, IL-8 or VEGF-A (R&D Systems) were incubated on HUVEC monolayers or on plastic plates coated with 5 μg/ml recombinant soluble VCAM-1 (R&D Systems). Adherent cells were quantified using a fluorescence activated plate reader (GeniosPro, TECAN). In some assays, cells were also incubated in 25 μg/ml anti-integrin α4β1 (PS2 for murine cells and HP2/1 for human cells, gifts from Biogen-Idec) and isotype control antibodies (IgG2bk for murine cells and IgG1 for human cells). In some studies, cells were incubated in 10 μM pan PI3K inhibitors […] or TG020, in PI3kinase α inhibitor PI3K75, PI3kinase γ/δ inhibitor TG115 and an inert control.
smiles,measurement,value
c1cc(CN2CCCNCCNCCCNCC2)ccc1CN1CCCNCCNCCCNCC1 [AMD3100],CD11b+ cell adhesion to endothelium,"inhibited SDF-1α, and TCM-induced but not IL-1β induced adhesion"
